Test [1] concerns H2087-TLISSLMPI (SEQ ID NO: 2) subcutaneous tumor. Kind of test: DC vaccine infected with recombinant lentivirus containing peptide gene in H2087-[…] tumor model. The test is classed as in vivo, NOD/SCID mice. Conditions: DC infected with lentivirus carrying peptide gene, 2 injections. The text has this: The following DNA sequences were synthesized: “[…]” (SEQ ID NO: 8), encoding the wild-type peptide […] (SEQ ID NO: 1); “[…]” (SEQ ID NO: 9), encoding the mutant peptide […] (SEQ ID NO: 2); “[…]” (SEQ ID NO: 10), encoding the SEQ ID NO: 2 […]'s variant peptide […] (SEQ ID NO: 3); “[…]” (SEQ ID NO: 11), encoding the SEQ ID NO: 2 […]'s variant peptide […] (SEQ ID NO: 4); “[…]” (SEQ ID NO: 12), encoding the SEQ ID NO: 2 […]'s variant peptide […] (SEQ ID NO: 5); “[…]” (SEQ ID NO: 13), encoding the SEQ ID NO: 2 […]'s variant peptide […] (SEQ ID NO: 6); and “[…]” (SEQ ID NO: 14), encoding the SEQ ID NO: 2_[…]'s variant peptide […] (SEQ ID NO: 7). The wild-type peptide […] (SEQ ID NO: 1), the mutant peptide […] (SEQ ID NO: 2) and the mutant peptide SEQ ID NO: 2 […]'s variant peptides were constructed into the lentiviral vector pHBLV-Puro, respectively, to name as pHBLV-Puro-[…] (SEQ ID NO: 1), pHBLV-Puro-[…] (SEQ ID NO: 2), pHBLV-Puro-[…] (SEQ ID NO: 3), pHBLV-Puro-[…] (SEQ ID NO: 4), pHBLV-Puro-[…] (SEQ ID NO: 5), pHBLV-Puro-[…] (SEQ ID NO: 6) and pHBLV-Puro-[…] (SEQ ID NO: 7), respectively. The seven lentiviral constructs were co-transfected into 293T cells with helper plasmids pSPAX2 and pMD2G for packaging, and lentiviruses of the wild-type peptide […] (SEQ ID NO: 1), the mutant peptide […] (SEQ ID NO: 2) and the mutant peptide's variant peptides were obtained.
600-900 ml of anticoagulated peripheral blood was collected from healthy volunteers for isolating peripheral blood mononuclear cells (PBMCs) via Ficoll. Cells were collected for use. 2×10^7 PBMCs per 0.5 ml was intraperitoneally injected into each of 300 NOD SCID mice without immune leakage to perform human immune reconstitution in NOD SCID mice. […]
The human non-small cell lung adenocarcinoma cell line H2087-[…] […] The long diameter a and the short diameter b of the tumor were measured with a vernier caliper every 2-3 days and the size of the tumor was calculated as a*b*b/2. The mice and tumors were weighed and recorded every day. […] The tumor volume and the survival rate of mice were recorded every 2 days. […]

Test [2] shares this test system. Kind of test: DC peptide vaccine in H2087-[…] subcutaneous tumor model. Type of test: in vivo, NOD/SCID mice. Particulars: DC loaded with peptide, intracutaneous, 2 injections; vs DC loaded with wild-type peptide. As for the experimental part: 600-900 ml of anticoagulated peripheral blood was collected from healthy volunteers for isolating peripheral blood mononuclear cells (PBMCs) via Ficoll. Cells were collected for use. 2×10^7 PBMCs per 0.5 ml was intraperitoneally injected into each of 300 NOD SCID mice without immune leakage to perform human immune reconstitution in NOD SCID mice. After 4 weeks, the mice were selected to be inoculated with the human lung cancer cell line.
The human non-small cell lung adenocarcinoma cell line H2087-[…] (SEQ ID NO: 2) as established in Example 7 was cultured in DMEM medium containing 10% fetal bovine serum, 100 U/mL penicillin and 100 U/mL streptomycin in an incubator at 37° C., 5% CO2. H2087-[…] […] The long diameter a and the short diameter b of the tumor were measured with a vernier caliper every 2-3 days and the size of the tumor was calculated as a*b*b/2. The mice and tumors were weighed and recorded every day. […] The tumor volume and the survival rate of mice were recorded every 2 days. […]
Tumor-bearing mice were randomly divided into 7 groups: DC loaded with wild-type peptide group, DC loaded with the mutant peptide […] […] After injection, vital signs of the mice were observed, and the vertical and horizontal dimensions of tumors were measured with a vernier caliper every two days. Tumor volume was calculated as follows: tumor volume=½×length×width^2. […]

We go through one sequence from patent US11548925B2, “CACNA1H-derived tumor antigen polypeptide and use thereof” (Genoimmune Therapeutics Co., Ltd., priority 2016, dated 2023).

With “TLISSLMPI [tumor antigen peptide from CACNA1H mutation, position 1428 arginine to methionine]”, the Tumor-suppressing effect result in test [1] is listed as “significant tumor-suppressing effects”. Besides, the “Survival period of mice” value in test [1] (vs wild-type peptide group) is reported as “prolonged the survival period of mice”. In test [2], the “Survival period of mice” value is recorded as “significantly prolonged survival period of mice” and the Tumor growth result was “slowed down tumor growth in mice”.
